# Several values for one entry are separate records, joined by “and”; a condition that tells them apart may be missing. Identical values can stand only once. Inconclusive results are not listed.
# System: MX-1 breast xenograft, intrarenal, nude mice, tumor weight
# Assay: NCI In Vivo Anticancer Drug Screen. Data for tumor model Human Mammary Carcinoma MX-1 Xenograft (intrarenal inoculation) in NU/NU BALB/C (nude) mice
# Details: endpoint: mean tumor weight change, higher = larger tumour
# Protocol: The antitumor activity of compounds was measured in mice bearing transplantable tumors. Survival or tumor size were measured and the results are expressed as the measurement made in the treated group (T) divided by the measurement made in the vehicle treated control group (C). The tumor model used in this assay is Human Mammary Carcinoma MX-1 Xenograft (intrarenal inoculation) in NU/NU BALB/C (nude) mice
# [1] = dose: 150.0 mg/kg/injection, schedule: Q04DX003 (ip), vehicle: Klucel (hydroxypropylcellulose) (HPC)
# [2] = dose: 150.0 mg/kg/injection, schedule: Q04DX003 (ip), vehicle: saline with Tween-80
# [3] = dose: 300.0 mg/kg/injection, schedule: Q04DX003 (ip), vehicle: saline with Tween-80
# [4] = dose: 150.0 mg/kg/injection, schedule: Q04DX003 (sc), vehicle: saline with Tween-80
# [5] = dose: 300.0 mg/kg/injection, schedule: Q04DX003 (sc), vehicle: saline with Tween-80
# [6] = dose: 25.0 mg/kg/injection, schedule: Q04DX003 (ip), vehicle: water
# [7] = dose: 50.0 mg/kg/injection, schedule: Q04DX003 (ip), vehicle: water
# [8] = dose: 100.0 mg/kg/injection, schedule: Q04DX003 (sc), vehicle: saline
# [9] = dose: 200.0 mg/kg/injection, schedule: Q04DX003 (sc), vehicle: saline
smiles,measurement,setting,value
OCC(O)C(O)C(O)C(O)CO (stereo not given),T/C,"dose: 75.0 mg/kg/injection, schedule: Q04DX003 (ip), vehicle: saline",75 % of control
same,T/C,"dose: 150.0 mg/kg/injection, schedule: Q04DX003 (ip), vehicle: saline",103 % of control
same,T/C,"dose: 300.0 mg/kg/injection, schedule: Q04DX003 (ip), vehicle: saline",91 % of control
same,T/C,"dose: 600.0 mg/kg/injection, schedule: Q04DX003 (ip), vehicle: saline",94 % of control
same,T/C,"dose: 1200.0 mg/kg/injection, schedule: Q04DX003 (ip), vehicle: saline",70 % of control
O=S(=O)(c1cccc(N=C=S)c1)c1cccc(N=C=S)c1,T/C,"dose: 50.0 mg/kg/injection, schedule: Q04DX003 (ip), vehicle: Klucel (hydroxypropylcellulose) (HPC)",121 % of control
same,T/C,"dose: 100.0 mg/kg/injection, schedule: Q04DX003 (ip), vehicle: Klucel (hydroxypropylcellulose) (HPC)",83 % of control
same,T/C,"dose: 200.0 mg/kg/injection, schedule: Q04DX003 (ip), vehicle: Klucel (hydroxypropylcellulose) (HPC)",82 % of control
O=NN(CCCl)C(=O)NCCCl,T/C,"dose: 12.0 mg/kg/injection, schedule: Q04DX003 (ip), vehicle: saline + alcohol",60 % of control and 74 % of control
same,T/C,"dose: 15.0 mg/kg/injection, schedule: Q04DX003 (sc), vehicle: Klucel (hydroxypropylcellulose) (HPC)",30 % of control
same,T/C,"dose: 18.0 mg/kg/injection, schedule: Q04DX003 (ip), vehicle: saline + alcohol",27 % of control and 49 % of control
same,T/C,"dose: 30.0 mg/kg/injection, schedule: Q04DX003 (sc), vehicle: Klucel (hydroxypropylcellulose) (HPC)",1 % of control
CC(=O)C(Cl)C(=O)c1c(C)[nH]n(-c2ccccc2)c1=O (stereo not given),T/C,[1],103 % of control
CC(C)(C[NH-])C[NH-].[Cl][Pt+2][Cl],T/C,"dose: 1.5 mg/kg/injection, schedule: Q04DX003 (ip), vehicle: water",56 % of control
same,T/C,"dose: 6.0 mg/kg/injection, schedule: Q04DX003 (ip), vehicle: water",2 % of control and 3 % of control
COc1ccc(C[C@@H]2NC[C@@H](O)[C@@H]2OC(C)=O)cc1,T/C,[2],78 % of control
same,T/C,[3],110 % of control
CS(C)(O)NC(N)=O,T/C,"dose: 150.0 mg/kg/injection, schedule: Q04DX003 (ip), vehicle: water",119 % of control
same,T/C,"dose: 300.0 mg/kg/injection, schedule: Q04DX003 (ip), vehicle: water",154 % of control
same,T/C,"dose: 600.0 mg/kg/injection, schedule: Q04DX003 (ip), vehicle: water",110 % of control
same,T/C,"dose: 1200.0 mg/kg/injection, schedule: Q04DX003 (ip), vehicle: water",74 % of control
CCc1nc(N)nc(N)c1-c1ccc(Cl)c(N=[N+]=[N-])c1,T/C,"dose: 67.0 mg/kg/injection, schedule: Q04DX003 (ip), vehicle: water",85 % of control
O=CNCO,T/C,"dose: 300.0 mg/kg/injection, schedule: Q01DX010 (sc), vehicle: water",68 % of control
same,T/C,"dose: 600.0 mg/kg/injection, schedule: Q01DX010 (sc), vehicle: water",39 % of control
same,T/C,"dose: 1200.0 mg/kg/injection, schedule: Q01DX010 (sc), vehicle: water",11 % of control
same,T/C,"dose: 2000.0 mg/kg/injection, schedule: Q01DX010 (sc), vehicle: water",8 % of control
CN(C)c1nc(N(C)C)nc(N(C)C)n1,T/C,"dose: 12.5 mg/kg/injection, schedule: Q01DX010 (sc), vehicle: saline with Tween-80",102 % of control
same,T/C,"dose: 15.0 mg/kg/injection, schedule: Q01DX010 (sc), vehicle: saline with Tween-80",84 % of control
same,T/C,"dose: 25.0 mg/kg/injection, schedule: Q01DX010 (ip), vehicle: Klucel (hydroxypropylcellulose) (HPC)",36 % of control
same,T/C,"dose: 25.0 mg/kg/injection, schedule: Q01DX010 (sc), vehicle: saline with Tween-80",56 % of control
same,T/C,"dose: 30.0 mg/kg/injection, schedule: Q01DX010 (sc), vehicle: saline with Tween-80",3 % of control
same,T/C,"dose: 50.0 mg/kg/injection, schedule: Q01DX010 (sc), vehicle: saline with Tween-80",7 % of control
same,T/C,"dose: 60.0 mg/kg/injection, schedule: Q01DX010 (sc), vehicle: saline with Tween-80",-30 % of control
same,T/C,"dose: 75.0 mg/kg/injection, schedule: Q04DX003 (sc), vehicle: saline with Tween-80",37 % of control
same,T/C,"dose: 100.0 mg/kg/injection, schedule: Q01DX010 (ip), vehicle: Klucel (hydroxypropylcellulose) (HPC)",-100 % of control
same,T/C,"dose: 100.0 mg/kg/injection, schedule: Q01DX010 (sc), vehicle: saline with Tween-80",9 % of control
same,T/C,"dose: 120.0 mg/kg/injection, schedule: Q01DX010 (sc), vehicle: saline with Tween-80",-90 % of control
same,T/C,[4],16 % of control
same,T/C,"dose: 200.0 mg/kg/injection, schedule: Q01DX010 (ip), vehicle: Klucel (hydroxypropylcellulose) (HPC)",-100 % of control
same,T/C,"dose: 200.0 mg/kg/injection, schedule: Q01DX010 (sc), vehicle: saline with Tween-80",-5 % of control
same,T/C,[5],-60 % of control
Cc1nc(N)nc(N)c1N1CCN(c2ccc(C(=O)NC(CCC(=O)O)C(=O)O)cc2)CC1 (stereo not given),T/C,"dose: 12.5 mg/kg/injection, schedule: Q04DX003 (ip), vehicle: other",85 % of control
same,T/C,"dose: 25.0 mg/kg/injection, schedule: Q04DX003 (ip), vehicle: other",112 % of control
same,T/C,"dose: 50.0 mg/kg/injection, schedule: Q04DX003 (ip), vehicle: other",122 % of control
same,T/C,"dose: 100.0 mg/kg/injection, schedule: Q04DX003 (ip), vehicle: other",87 % of control
Nc1nc2ncn(O)c2c(=O)[nH]1,T/C,[6],25 % of control and 41 % of control
same,T/C,[7],13 % of control
CC(=O)Nc1cscc1NC(C)=O,T/C,[4],198 % of control
same,T/C,[5],59 % of control
same,T/C,"dose: 1200.0 mg/kg/injection, schedule: Q04DX003 (sc), vehicle: saline with Tween-80",106 % of control
Nc1ccn([C@@H]2C=C(CO)[C@@H](O)[C@H]2O)c(=O)n1,T/C,"dose: 0.5 mg/kg/injection, schedule: Q01DX009 (ip), vehicle: saline",26 % of control
same,T/C,"dose: 2.0 mg/kg/injection, schedule: Q01DX009 (ip), vehicle: saline",3 % of control
COc1cc2c(c(OC)c1OC)-c1ccc(OC)c(=O)cc1[C@@H](NC(=O)CCl)CC2,T/C,"dose: 0.5 mg/kg/injection, schedule: Q04DX003 (sc), vehicle: saline with Tween-80",87 % of control
same,T/C,"dose: 1.0 mg/kg/injection, schedule: Q04DX003 (sc), vehicle: saline with Tween-80",43 % of control
same,T/C,"dose: 2.0 mg/kg/injection, schedule: Q04DX003 (sc), vehicle: saline with Tween-80",8 % of control
same,T/C,"dose: 4.0 mg/kg/injection, schedule: Q04DX003 (sc), vehicle: saline with Tween-80",1 % of control
C=CCOc1cc2c(cc1C(C)c1ccc(OC)cc1)OCO2 (stereo not given),T/C,"dose: 75.0 mg/kg/injection, schedule: Q04DX003 (ip), vehicle: Klucel (hydroxypropylcellulose) (HPC)",73 % of control
same,T/C,[1],91 % of control
same,T/C,"dose: 300.0 mg/kg/injection, schedule: Q04DX003 (ip), vehicle: Klucel (hydroxypropylcellulose) (HPC)",94 % of control
Cc1nnc2ncccn12,T/C,[8],86 % of control
same,T/C,[9],104 % of control
Nc1ccn([C@@H](C=O)O[C@@H](C=O)CO)c(=O)n1,T/C,"dose: 50.0 mg/kg/injection, schedule: Q04DX003 (sc), vehicle: saline",70 % of control
same,T/C,[8],14 % of control
same,T/C,[9],-85 % of control
C=CCNC(=O)c1ccccc1SC(C)=O,T/C,[2],93 % of control
same,T/C,[3],99 % of control
CNCCN=c1ccc2c3c1c(O)c1c(O)ccc(=O)c1c3[nH]n2CCNCCO,T/C,"dose: 1.56 mg/kg/injection, schedule: Q04DX003 (ip), vehicle: water",7 % of control and 17 % of control and 26 % of control
same,T/C,"dose: 3.12 mg/kg/injection, schedule: Q04DX003 (ip), vehicle: water",1 % of control and 5 % of control and 8 % of control
Cc1nn(CCO)c(C)c1N=[N+]([O-])c1c(C)nn(CCO)c1C,T/C,"dose: 300.0 mg/kg/injection, schedule: Q04DX003 (sc), vehicle: Klucel (hydroxypropylcellulose) (HPC)",109 % of control
same,T/C,"dose: 600.0 mg/kg/injection, schedule: Q04DX003 (sc), vehicle: Klucel (hydroxypropylcellulose) (HPC)",85 % of control
same,T/C,"dose: 1200.0 mg/kg/injection, schedule: Q04DX003 (sc), vehicle: Klucel (hydroxypropylcellulose) (HPC)",102 % of control
same,T/C,"dose: 2400.0 mg/kg/injection, schedule: Q04DX003 (sc), vehicle: Klucel (hydroxypropylcellulose) (HPC)",90 % of control
O=NNc1cnccn1,T/C,"dose: 12.5 mg/kg/injection, schedule: Q04DX003 (ip), vehicle: water",53 % of control and 74 % of control
same,T/C,[6],26 % of control (2×) and 41 % of control
same,T/C,[7],7 % of control and 8 % of control and 16 % of control

# Source: PubChem BioAssay AID298 (DTP/NCI, 2004)
